In experiment [1] the test system is SEC subunits AFF1, AFF4, ELL2, CCNT1 and CDK9 mRNA. In words: RNA-seq of SEC subunit mRNA expression in HEK293T cells. The format is cell-based, human. The note with it: 20 μM, 12 hr. The source says:
FIG. 8, related to FIG. 1. Peptidomimetic identification of disruptors of the AFF4-CCNT1 interaction within the Super Elongation Complex. (A) Schematic of AlphaLISA assay of the AFF4-CCNT1 interaction. Anti-GST AlphaLISA acceptor beads and AlphaScreen streptavidin donor beads (Perkin Elmer) were used to detect the interaction of GST-CCNT1 (AA1-300) and biotin-AFF4 (AA32-67). (B-C) Optimization of the AlphaLISA assay with various biotin-AFF4 peptide and GST-CCNT1 concentrations. No CCNT1 (B) and mutant AFF4 (C) were used as negative controls. Data are represented as Mean+/−SD. (D) Scheme for chemical synthesis of SEC inhibitors KL-1 and KL-2. Reagents and conditions: a. LDA, THF, −78° C., 15 min., then diethyl oxalate, −78° C. to room temperature. b. […] 293T cells were treated with 20 μM of KL-1 or KL-2 for 6 hr, and the protein levels of BRD2, BRD4, Pol II (RPB1), SPT5, MED26, MYC, HSP90 (load control) and Tubulin (load control) were measured by western blotting. […] HCT-116 cells were treated with 20 μM of KL-1 or KL-2 for 6 hr, and the protein levels of AFF1, AFF4, CCNT1, CDK9 and Tubulin (load control) were determined by western blotting. […] The log2CPM (counts per million) of the SEC subunits were calculated with HTseq. […]
RNA-seq Analysis. […] Exonic reads were assigned to specific genes from Ensembl release 75 using Bioconductor package GenomicRanges countOverlaps. […]

A further experiment relates to MDA231-LM2 tumor. The experiment in a line: MDA231-LM2 tumor model in athymic nude mice. The conditions noted are these: 50 mg/kg once daily, 15 intraperitoneal injections. The format is in vivo. The procedure: FIG. 7. SEC disruptors delay tumor progression and improve survival of MDA231-LM2 tumor mice. (A) Schematic of the development of MDA231-LM2 tumors in athymic nude mice (Wang et al., 2017). 4×10^6 MDA231-LM2 cells were inoculated into the fat pads of nude mice. 17 days after injection, when the tumor reached 100 mm^3, mice were divided randomly into three groups. Drug treatments were performed with once daily with 50 mg/kg KL-1, 10 mg/kg KL-2 or PBS (vehicle) for a total of 15 intraperitoneal injections. (B-C) KL-1 and KL-2 delay the tumor growth in the MDA231-LM2 tumor mouse model. The average tumor sizes of the vehicle (n=6), KL-1 (n=7), and KL-2 (n=5) treated groups were plotted from day 5 to day 36 after inoculation (B). Representative tumors sizes are shown (C). […] A 2-way unpaired student's t-test was used for statistical analysis. (E) Kaplan-Meier survival curves of vehicle, KL-1, and KL-2 treated nude mice transplanted with 4×10^6MDA231-LM2 cells. 17 days after inoculation, vehicle (n=6), KL-1 (n=7), and KL-2 (n=5) were administered daily for 15 intraperitoneal injections. Mice were euthanized when the tumor size reached 1000 mm^3. Thep values were calculated using the log-rank test.
MDA231-LM2 Tumor Model. […] The tumor sizes were measured twice a week and the mice were euthanized when the tumor size reached 1000 mm^3.

Regarding `COc1cccc(C(=O)CC(=O)C(=O)Nc2cc(Cl)ccc2C)c1` [KL-1, N-(5-chloro-2-methylphenyl)-4-oxo-4-(3-methoxyphenyl)-2-oxobutanamide], the “mRNA levels of SEC components” value in experiment [1] is “do not result in decreased mRNA levels of SEC components”. Besides, in the experiment on MDA231-LM2 tumor, the “survival of the recipient mice” value is given as “significantly extended survival” and the “tumor progression (tumor sizes)” value is “delayed tumor progression”.
